Results taken from patent US7514076B2, “Antitumor agents” (priority 1997, dated 2009).

Experiments:
S180 solid tumor = test: Antitumor effect of PEG-DAO on S180 solid tumor model; assay type: in vivo, ddY mice; conditions: 1.5 U i.v. day 7, D-proline 0.5 mmol i.p. 2 and 4 hrs after; FIG. 10
Method: S180 cells (2×10^6 cells) were inoculated subcutaneously to ddY mice. Seven days after tumor inoculation, mice were injected i.v. with 1.5 U of native DAO or PEG-DAO followed by D-proline 0.5 mmol, i.p. (2 and 4 hrs after DAO administration).
In the FIG. 10, —●— indicates the result of treated mice by administration of PEG-DAO by […]. injection with D-proline, and —▴— indicates the result of administration of native DAO similarly with D-proline. —◯— indicates the result of control mice without any drug treatment Data are means (n=4-8)±SE (standard error). […] Thus, in vivo activity of PEG-DAO is excellent.

[1] = Time course of tumor accumulation of PEG-XO-high (XO activity in tumor homogenate, pterin substrate); assay type: in vivo, ddY mice
Method: The time course of the tumor accumulation of PEG-XO-high was examined by measuring the enzyme activity derived from PEG-XO-high in the tumor tissue. Tumor bearing mice were prepared as described above. PEG-XO-high (2 U/ml, 100 μl) was injected intravenously (i.v.) to the mice. After a given period, the tumor tissue was removed as described above. The tumor tissue was then homogenized with three volumes of 20 mM potassium phosphate buffer pH 7.6 which contained 2 mM ethylenediaminetetraacetic acid, 2 mM amidinophenylmethanesulfonyl fluoride, 10 mM dithiothreitol, 0.5 μg/ml of leupeptin. The homogenates were centrifuged at 10,000 g for 20 min, and each supernatant was applied to a FPLC system with a Superose 6 HR 10/30 column similar to the previous section. The enzyme activity of the PEG-XO-high fraction was determined fluorometrically, i.e., the formation of fluorescent isoxanthopterin from pterin was measured with an excitation at 345 nm and an emission at 390 nm, in which hypoxanthine was replaced with pterin as substrate. The quantification was made using the calibration curve of the authentic isoxanthopterin (Aldrich Chemical, Milwaukee, Wis.).

S-180 solid tumor = test: Antitumor activity of PEG-XO in vivo with hypoxanthine; parameters: species or system ddY mice; conditions: for suppression of the tumor growth: FIG. 1
Method: When the tumors became palpable (5-7 mm in diameter), usually 7 days after implantation, the treatment was resumed.
Hypoxanthine (13.3 mg/kg) was injected intraperitoneally six times, each time more than 6 hrs after the last time, as indicated by asterisks (*) in the FIG. 1 to 3.

[2] = Enzyme activity of PEG-XO: formation of uric acid from hypoxanthine (absorbance at 290 nm); assay type: biochemical; conditions: for XO activity: 50 μM hypoxanthine, 50 mM sodium phosphate buffer pH 7.4, room temperature; for enzyme activity compared with native XO: relative to native XO
Method: The enzyme activity was determined by quantifying the formation of uric acid from hypoxanthine by measuring the increase of absorbance at 290 nm, an absorption maximum of uric acid. The initial concentration of the substrate hypoxanthine was 50 μM. The enzyme reaction was carried out in 50 mM sodium phosphate buffer (pH 7.4) at room temperature. One unit of XO activity is defined as the velocity of the formation of 1 μmol of uric acid per min.

[3] = Systemic side effect of PEG-XO-high/hypoxanthine; assay type: in vivo; conditions: PEG-XO/hypoxanthine therapy
[4] = Bray and Swann 1972; confirmed by the inventors; cited from earlier work
[5] = 2 administrations 0.6 U/mouse, hypoxanthine 13.3 mg/kg i.p.
[6] = 15 days after tumor inoculation, 2 times 0.6 U/mouse i.v. (day 7, 9), hypoxanthine 13.3 mg/kg i.p. six times

Substance | suppression of the tumor growth (S-180 solid tumor; [5]) | weight of tumor (S-180 solid tumor; [6]) | XO activity [2] | enzyme activity compared with native XO [2] | also measured
D-amino acid oxidase [native DAO] |  |  |  |  | suppression of the tumor growth (S180 solid tumor): no significant reduction of the tumor growth
PEG-XO-high: Xanthine oxidase conjugated with succinimide activated-PEG (Mw 5000), 49% of amino groups modified | significant (p<0.05) suppression of the tumor growth | 0.22 ± 0.05 g | 1.15 U/mg protein | 54% | XO activity in S-180 solid tumor tissue after injection ([1]; 0.2 U/mouse i.v., 24 hrs, FIG. 6B): a new large peak of XO activity was observed; PEG-XO-high activity in tumor over time ([1]; FIG. 7): increased in a time dependent manner; antitumor activity (S-180 solid tumor; 3 administrations 0.6 U/mouse, hypoxanthine 13.3 mg/kg i.p., FIG. 2): remarkable antitumor activity; weight of tumor (S-180 solid tumor; 13 days after tumor inoculation, 3 times 0.6 U/mouse i.v. (day 7, 8, 9), hypoxanthine 13.3 mg/kg i.p. 6 times): 0.13 ± 0.08 g; inhibition of tumor growth (S-180 solid tumor; day 13, 3 administrations 0.6 U/mouse, hypoxanthine 13.3 mg/kg i.p.): 77%; inhibition of the tumor growth (S-180 solid tumor; day 15, 2 administrations 0.6 U/mouse, hypoxanthine 13.3 mg/kg i.p.): 39%
PEG-XO-low: Xanthine oxidase conjugated with succinimide activated-PEG (Mw 5000), 17% of amino groups modified |  |  | 2.40 U/mg protein | 110% | 
PEG-XO: Chemically conjugated XO with poly(ethylene glycol); generic term, in vivo work used PEG-XO-high |  |  |  |  | hematotoxicity or liver toxicity [3]: No serious or significant hematotoxicity or liver toxicity
xanthine oxidase [Native-XO] | no significant reduction of the tumor growth | 0.31 ± 0.03 g | 2.12 U/mg protein |  | antitumor effect of native XO (literature) [4]: insignificant
